Our source for the IC50, Ki and inhibition values is patent US20110166121A1 (LG LIFE SCIENCES LTD., priority 2008, published 2011).

The target of one experiment is T1, Human P2Y12 receptor (Homo sapiens, UniProt Q9H244).
T1 construct: expressed in transfected cells; host or cells: HEK cells
Description: Human P2Y12 receptor cell membrane binding assay with [3H] 2-Mes-ADP. Conditions: 1 nM [3H] 2-Mes-ADP, membranes of HEK cells expressing P2Y12 receptor; read-out: Binding activity (IC50). In outline: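 Membranes from HEK cells expressing human P2Y12 were incubated with compound and 1 nM [3H]2-MeS-ADP for 1 h at room temperature. Bound radioactivity was collected by GF/B filtration.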

In experiment [1] the test system is Human platelet aggregation caused by ADP. Description: Inhibition of ADP-induced platelet aggregation (Mimic-human PRP). It is filed as cell-based. Conditions: 20 μM ADP; for Ki: human platelet concentrate diluted with PPP, absorption at 595 nm. The essentials:
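Human PRP diluted with PPP to 3–4×10^8 platelets/mL was preincubated 20 min at room temperature with compound (0.01–30 μM, DMSO), then stimulated with 20 μM ADP. Aggregation read as A595 increase at 3 min versus 0 and 20 μM ADP controls; Ki from sigmoidal non-linear regression.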

Structures are written as SMILES.

T1 sequence (Q9H244 whole entry): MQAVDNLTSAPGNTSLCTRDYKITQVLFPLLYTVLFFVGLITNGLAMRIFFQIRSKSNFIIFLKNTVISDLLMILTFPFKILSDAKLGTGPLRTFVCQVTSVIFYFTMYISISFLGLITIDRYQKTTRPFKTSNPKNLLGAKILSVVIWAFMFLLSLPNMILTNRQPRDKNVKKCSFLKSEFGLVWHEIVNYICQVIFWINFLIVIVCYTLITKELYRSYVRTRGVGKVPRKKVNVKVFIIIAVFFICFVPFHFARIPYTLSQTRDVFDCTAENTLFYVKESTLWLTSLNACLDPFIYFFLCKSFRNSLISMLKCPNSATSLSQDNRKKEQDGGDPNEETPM

Consider `CCCc1cc2c(N3CCn4c(nnc4C(F)(F)F)C3)nc(C3=N[C@H](CC(=O)O)CS3)nc2s1` [Example 4-49, {(R)-2-[6-Propyl-4-(3-trifluoromethyl-5,6-dihydro-8H-[1,2,4]triazolo[4,3-a]pyrazin-7-yl)thieno[2,3-d]pyrimidin-2-yl]-4,5-dihydro-thiazol-4-yl}acetic acid], for which, on Human P2Y12 receptor, the concentration for half-maximal inhibition (IC50) came out at 33 nM. Further, the Ki in experiment [1] was 11 nM.
`CCCc1cc2c(N3CCn4c(nnc4C(F)(F)F)C3)nc(-c3nc(CO)cs3)nc2s1` [Example 4-50, {2-[6-Propyl-4-(3-trifluoromethyl-5,6-dihydro-8H-[1,2,4]triazolo[4,3-a]pyrazin-7-yl)thieno[2,3-d]pyrimidin-2-yl]thiazol-4-yl}methanol]: the IC50 at Human P2Y12 receptor amounted to 57 nM. In addition, the Ki in experiment [1] is 34 nM.
Taken in the same sequence, the figures for `CCCc1cc2c(N3CCn4c(nnc4C(F)(F)F)C3)nc(-c3nc(CC(=O)OCC)cs3)nc2s1` [Example 4-51, {2-[6-Propyl-4-(3-trifluoromethyl-5,6-dihydro-8H-[1,2,4]triazolo[4,3-a]pyrazin-7-yl)thieno[2,3-d]pyrimidin-2-yl]thiazol-4-yl}acetic acid ethyl ester] were 40 nM and 36 nM.
Taken in the same sequence, the figures for `CCCc1cc2c(N3CCn4c(nnc4C(F)(F)F)C3)nc(-c3nc(CC(=O)O)cs3)nc2s1` [Example 4-52, {2-[6-Propyl-4-(3-trifluoromethyl-5,6-dihydro-8H-[1,2,4]triazolo[4,3-a]pyrazin-7-yl)thieno[2,3-d]pyrimidin-2-yl]thiazol-4-yl}acetic acid] were 14 nM and 38 nM.
Taken in the same sequence, the figures for `CCCc1cc2c(N3CCn4c(nnc4C(F)(F)F)C3)nc(CC(=O)OCC)nc2s1` [Example 4-53, [6-Propyl-4-(3-trifluoromethyl-5,6-dihydro-8H-[1,2,4]triazolo[4,3-a]pyrazin-7-yl)thieno[2,3-d]pyrimidin-2-yl]acetic acid ethyl ester] were 300 nM and 5250 nM.
For `CCCc1cc2c(N3CCn4c(nnc4C(F)(F)F)C3)nc(CC(=O)O)nc2s1` [Example 4-54, [6-Propyl-4-(3-trifluoromethyl-5,6-dihydro-8H-[1,2,4]triazolo[4,3-a]pyrazin-7-yl)thieno[2,3-d]pyrimidin-2-yl]acetic acid], at Human P2Y12 receptor, the IC50 came to 370 nM. Moreover, the affinity in experiment [1] corresponds to a Ki of 470 nM.
In the same order, the values of `CCCc1cc2c(N3CCn4c(nnc4C(F)(F)F)C3)nc(CC(N)=O)nc2s1` [Example 4-55, 2-[6-Propyl-4-(3-trifluoromethyl-5,6-dihydro-8H-[1,2,4]triazolo[4,3-a]pyrazin-7-yl)-thieno[2,3-d]pyrimidin-2-yl]-acetamide] are 174 nM and 4.2 nM.
Taken in the same sequence, the figures for `CCCc1cc2c(N3CCn4c(nnc4C(F)(F)F)C3)nc(CC(N)=S)nc2s1` [Example 4-56, 2-[6-Propyl-4-(3-trifluoromethyl-5,6-dihydro-8H-[1,2,4]triazolo[4,3-a]pyrazin-7-yl)-thieno[2,3-d]pyrimidin-2-yl]-thioacetamide] were 170 nM and 6.4 nM.
Taken in the same sequence, the figures for `CCCc1cc2c(N3CCn4c(nnc4C(F)(F)F)C3)nc(Cc3nc(C(=O)OCC)cs3)nc2s1` [Example 4-57, 2-[6-Propyl-4-(3-trifluoromethyl-5,6-dihydro-8H-[1,2,4]triazolo[4,3-a]pyrazin-7-yl)-thieno[2,3-d]pyrimidin-2-ylmethyl]-thiazole-4-carboxylic acid ethyl ester] were 240 nM and 280 nM.
Consider `CCCc1cc2c(N3CCn4c(nnc4C(F)(F)F)C3)nc(Cc3nc(C(=O)O)cs3)nc2s1` [Example 4-58, 2-[6-Propyl-4-(3-trifluoromethyl-5,6-dihydro-8H-[1,2,4]triazolo[4,3-a]pyrazin-7-yl)-thieno[2,3-d]pyrimidin-2-ylmethyl]-thiazole-4-carboxylic acid], for which the IC50 on Human P2Y12 receptor amounted to 300 nM. Besides, in experiment [1], the Ki amounted to 243 nM.
In the same order, the values of `CCCc1cc2c(N3CCn4c(nnc4C(F)(F)F)C3)nc(-c3nc(CCO)cs3)nc2s1` [Example 4-59, 2-{2-[6-Propyl-4-(3-trifluoromethyl-5,6-dihydro-8H-[1,2,4]triazolo[4,3-a]pyrazin-7-yl)-thieno[2,3-d]pyrimidin-2-yl]-thiazol-4-yl}-ethanol] are 40 nM and 8.4 nM.
Taken in the same sequence, the figures for `CCCc1nc2c(N3CCn4c(nnc4C(F)(F)F)C3)nc(N3CCNC(=O)C3)nc2s1` [Example 5-4, 4-[2-Propyl-7-(3-trifluoromethyl-5,6-dihydro-8H-[1,2,4]triazolo[4,3-a]pyrazin-7-yl)-thiazolo[5,4-d]pyrimidin-5-yl]-piperazin-2-one] were 72 nM and 57 nM.
In the same order, the values of `CCCc1nc2c(N3CCn4c(nnc4C(F)(F)F)C3)nc(N3CC[C@H](N)C3)nc2s1` [Example 5-5, (S)-1-[2-Propyl-7-(3-trifluoromethyl-5,6-dihydro-8H-[1,2,4]triazolo[4,3-a]pyrazin-7-yl)-thiazolo[5,4-d]pyrimidin-5-yl]-pyrrolidin-3-ylamine] are 170 nM and 25 nM.
As for `CCCc1nc2c(N3CCn4c(nnc4C(F)(F)F)C3)nc(N3CCC[C@H](C(=O)OCC)C3)nc2s1` [Example 5-6, (S)-1-[2-Propyl-7-(3-trifluoromethyl-5,6-dihydro-8H-[1,2,4]triazolo[4,3-a]pyrazin-7-yl)-thiazolo[5,4-d]pyrimidin-5-yl]-piperidine-3-carboxylic acid ethyl ester], the IC50 on Human P2Y12 receptor worked out at 630 nM. Further, the Ki in experiment [1] was greater than 4000 nM.
In the same order, the values of `CCCc1nc2c(N3CCn4c(nnc4C(F)(F)F)C3)nc(N3CCC[C@H](C(=O)O)C3)nc2s1` [Example 5-7, (S)-1-[2-Propyl-7-(3-trifluoromethyl-5,6-dihydro-8H-[1,2,4]triazolo[4,3-a]pyrazin-7-yl)-thiazolo[5,4-d]pyrimidin-5-yl]-piperidine-3-carboxylic acid] are 32 nM and 38 nM.
In the same order, the values of `CCc1cc2c(N3CCn4c(nnc4C(F)(F)C(F)(F)F)C3)nc(OCC(O)CO)nc2s1` (centres unmarked) [Example 6-3, 3-[6-Ethyl-4-(3-pentafluoroethyl-5,6-dihydro-8H-[1,2,4]triazolo[4,3-a]pyrazin-7-yl)-thieno[2,3-d]pyrimidin-2-yloxy]-propane-1,2-diol] are 620 nM and 395 nM.
Regarding `CCCc1cc2c(N3CCn4c(nnc4C(F)(F)C(F)(F)F)C3)nc(N3CCNC(=O)C3)nc2s1` [Example 6-4, 4-[4-(3-Pentafluoroethyl-5,6-dihydro-8H-[1,2,4]triazolo[4,3-a]pyrazin-7-yl)-6-propyl-thieno[2,3-d]pyrimidin-2-yl]-piperazin-2-one], the IC50 at Human P2Y12 receptor is 128 nM. In experiment [1], this compound came in with a Ki of 308 nM.
In the same order, the values of `CCCc1cc2c(N3CCn4c(nnc4C(F)(F)C(F)(F)F)C3)nc(N3CCNCC3)nc2s1` [Example 6-5, 3-Pentafluoroethyl-7-(2-piperazin-1-yl-6-propyl-thieno[2,3-d]pyrimidin-4-yl)-5,6,7,8-tetrahydro-[1,2,4]triazolo[4,3-a]pyrazine] are 266 nM and 940 nM.
On to `CCCc1cc2c(N3CCn4c(nnc4C(F)(F)C(F)(F)F)C3)nc(N3CCN(C)CC3)nc2s1` [Example 6-6, 7-[2-(4-Methyl-piperazin-1-yl)-6-propyl-thieno[2,3-d]pyrimidin-4-yl]-3-pentafluoroethyl-5,6,7,8-tetrahydro-[1,2,4]triazolo[4,3-a]pyrazine], for which the IC50 at Human P2Y12 receptor amounted to 315 nM. The compound further registered an inhibition at 40 µM in experiment [1] (Homo sapiens, Platelet, 40 μM compound) of 49%.
Take `CCCc1cc2c(N3CCn4c(nnc4C(F)(F)C(F)(F)F)C3)nc(NCCO)nc2s1` [Example 6-7, 2-[4-(3-Pentafluoroethyl-5,6-dihydro-8H-[1,2,4]triazolo[4,3-a]pyrazin-7-yl)-6-propyl-thieno[2,3-d]pyrimidin-2-ylamino]-ethanol]: on Human P2Y12 receptor, the half-maximal inhibitory concentration (IC50) turned out to be 490 nM. The compound further registered a Ki in experiment [1] of 407 nM.
Turning to `CCCc1cc2c(N3CCn4c(nnc4C(F)(F)C(F)(F)F)C3)nc(OCC(O)CO)nc2s1` (centres unmarked) [Example 6-8, 3-[4-(3-Pentafluoroethyl-5,6-dihydro-8H-[1,2,4]triazolo[4,3-a]pyrazin-7-yl)-6-propyl-thieno[2,3-d]pyrimidin-2-yloxy]-propane-1,2-diol], the IC50 on Human P2Y12 receptor is 130 nM. The compound further had an inhibitory constant (Ki) in experiment [1] of 95 nM.
In the same order, the values of `CCCc1cc2c(N3CCn4c(nnc4C(F)(F)C(F)(F)F)C3)nc(OCCO)nc2s1` [Example 6-9, 2-[4-(3-Pentafluoroethyl-5,6-dihydro-8H-[1,2,4]triazolo[4,3-a]pyrazin-7-yl)-6-propyl-thieno[2,3-d]pyrimidin-2-yloxy]-ethanol] are 120 nM and 30 nM.
On to `CCc1cc2c(N3CCn4c(C)nnc4C3)nc(N3CCNC(=O)C3)nc2s1` [Example 6-12, 4-[6-Ethyl-4-(3-methyl-5,6-dihydro-8H-[1,2,4]triazolo[4,3-a]pyrazin-7-yl)-thieno[2,3-d]pyrimidin-2-yl]-piperazin-2-one], for which, at Human P2Y12 receptor, the IC50 worked out at 760 nM. The Ki in experiment [1] is 809 nM.
Taken in the same sequence, the figures for `CCc1cc2c(N3CCn4c(C)nnc4C3)nc(OCC(O)CO)nc2s1` (centres unmarked) [Example 6-13, 3-[6-Ethyl-4-(3-methyl-5,6-dihydro-8H-[1,2,4]triazolo[4,3-a]pyrazin-7-yl)-thieno[2,3-d]pyrimidin-2-yloxy]-propane-1,2-diol] were 2460 nM and 716 nM.
In the same order, the values of `CCCc1cc2c(N3CCn4c(C)nnc4C3)nc(N3CCNC(=O)C3)nc2s1` [Example 6-14, 4-[4-(3-Methyl-5,6-dihydro-8H-[1,2,4]triazolo[4,3-a]pyrazin-7-yl)-6-propyl-thieno[2,3-d]pyrimidin-2-yl]-piperazin-2-one] are 322 nM and 260 nM.
